From patent publication US11400269B2, “Using alternating electric fields to increase permeability of the blood brain barrier” (Novocure GmbH, priority 2018, dated 2022)

Tests used:
rat brain (BBB) [1] = assay: DCE-MRI contrast agent accumulation in rat brain; type: in vivo
Procedure: Yet another set of in vivo experiments was performed using Dynamic Contrast Enhanced MRI (DCE-MRI) with intravenous injection of Gadolinium contrast agent (Gd-DTPA, Magnetol, MW 547). In these experiments, test rats were treated with 100 kHz alternating electric fields for 72 h, and control rats were not treated with alternating electric fields for the same period of time. After this 72 h period, the alternating electric field was turned off, the rats were anesthetized, and a series of 60 T1w MRI scans (each of the scans having a duration of 28 seconds) was acquired. The gadolinium contrast agent was injected into the rat's tail vein during the 7th of these 60 scans.
The image analysis for each rat included (1) determining a baseline for each voxel by calculating the mean of the first six T1w MRI scans for each voxel (i.e., the scans prior to the injection of the gadolinium); (2) computing voxel by voxel, the percent signal change (i.e., gadolinium accumulation) over time relative to the baseline; (3) segmenting the brain into anterior, middle, and posterior segments; (4) generating for each of the three segments the mean percent signal change with respect to the baseline over all the voxels in the respective segment and then (5) averaging 4 consecutive time points (i.e. 4 scans) together. Finally, the data from all of the rats within any given group were averaged together. […]

rat brain (BBB) [2] = assay: Evans Blue accumulation in rat brain after alternating electric fields; type: in vivo
Description: A set of in vivo experiments on rats was also run to quantify the increase in vessel permeability caused by exposure to the alternating electric fields. These experiments used Evans Blue (EB) dye, which is an azo dye that has a very high affinity for serum albumin (molecule size ˜69 kDa). Because of its large molecule size, serum albumin will ordinarily not be able to get past the BBB.
This was accomplished by shaving each rat's head, positioning a first pair of capacitively coupled electrodes on the top and bottom of the rat's head, and positioning a second pair of capacitively coupled electrodes on the left and right sides of the rat's head. A 100 kHz AC voltage was then applied between the top and bottom electrodes for 1 second, followed by a 100 kHz AC voltage applied between the right and left electrodes for 1 second, in a repeating sequence.
Under the conditions indicated in Table 1 and for the times indicated on Table 1, EB was injected intravenously into the tail vein under anesthesia (Once injected, EB immediately binds to Albumin), and the EB was allowed to circulate for 2 hours in all cases. The following steps were then performed: (a) intracardiac perfusion with saline; (b) brains are sliced in four pieces with a brain slicer; (c) pieces were photographed to localize staining and weighted; (d) EB extraction after tissue homogenization with TCA 50% (1:3) and centrifuge and (e) EB quantification at 610 nm. Results are given as μg EB per g tissue.
During the experiment, two animals from group 2 and one animal from group 4 were excluded (disrupted treatment, failure to inject EB into the tail vein). There were no differences between the animals treated with alternating electric fields (groups 1 and 2) and therefore these animals were grouped together. Similarly, there were no differences between sham heat and control animals (groups 3 and 4) and therefore these animals were grouped together.
EB accumulation in these four specific sections was then measured. In addition, a computer simulation was performed to determine the field strength in each of these four sections. […]

[3] = 100 kHz fields 72 h vs sham heat/control, EB i.v., circulated 2 hours, measured as μg EB per g tissue, FIG. 5

Compound	contrast agent accumulation in the brain tissue (percent signal change) (rat brain (BBB) [1]; 100 kHz fields 72 h (n=6) vs control rats (n=3), i.v., FIG. 7)	contrast agent accumulation in the brain tissue (percent signal change) after recovery (rat brain (BBB) [1]; 72 hours fields followed by 96 hours without fields (n=7) vs control+96 h (n=3))	average EB accumulation in the rat brain, averaged over all four sections 1-4 (rat brain (BBB) [2]; 100 kHz fields 72 hours vs sham heat/control, p<0.05, FIG. 6)	EB accumulation, more posterior sections (3, 4) (rat brain (BBB) [2]; [3])	EB accumulation, sections 1, 2 (frontal cerebrum) (rat brain (BBB) [2]; [3])
O=C([O-])CN(CCN(CC(=O)[O-])CC(=O)O)CCN(CC(=O)[O-])CC(=O)O.[Gd+3] [contrast agent, Gd-DTPA]	significantly higher	not significantly different	–	–	–
Cc1cc(-c2ccc(/N=N/c3ccc4c(S(=O)(=O)O)cc(S(=O)(=O)O)c(N)c4c3O)c(C)c2)ccc1/N=N/c1ccc2c(S(=O)(=O)O)cc(S(=O)(=O)O)c(N)c2c1O [EB, Evans Blue]	–	–	higher accumulation	smaller increase (that was not statistically significant)	statistically significant increase
